Assay results published in US9056835B2, “LPA2 receptor-specific benzoic acid derivatives” (University of Tennessee Research Foundation, priority 2012, dated 2015).

What was measured:
[1] = target: T1, LPA2, TRIP6 and NHERF2 (Homo sapiens, UniProt Q9HBW0); assay: Ligand-induced macromolecular complex formation with LPA2; format: cell-based; settings: HEK293T, FLAG-LPA2 and EGFP-NHERF2, 10 μM, 10 min
T1 construct: expressed in transfected cells; host or cells: HEK293T, transient co-transfection
Excerpt: LPA2 forms a ternary complex with TRIP6 and NHERF2. This complex is assembled via multiple protein-protein interactions that include: binding of NHERF2 to the C-terminal PSD95/Dlg/ZO-1 domain (PDZ)-binding motif of LPA2, the binding of TRIP6 to the Zinc-finger-like CxxC motif of LPA2, and binding of NHERF2 to the PDZ-binding motif of TRIP6. To examine ligand-induced macromolecular complex formation, HEK293T cells were transfected with FLAG-LPA2 and enhanced green fluorescent protein (EGFP)-NHERF2, and the cells were exposed to 10 μM GRI977143 for 10 min as described in detail in our previous publication (E et al., The LPA2 receptor-mediated supramolecular complex formation regulates its antiapoptotic effect. J Biol Chem (2009) 284: 14558-14571). The complex was pulled down using anti-FLAG M2 monoclonal antibody-conjugated agarose beads (Sigma-Aldrich) and processed for western blotting using anti-EGFP (gift from Dr. A. P. Naren; UTHSC, TN), anti-FLAG (Sigma-Aldrich), and anti-TRIP6 (Bethyl Laboratories; Montgomery, Tex.) antibodies.

[2] = system: MM1 hepatoma cells; assay: MM1 hepatoma cell invasion of endothelial monolayer; format: cell-based, rat; settings: LPA 1 μM, GRI977143 10 μM, 20 h
Method: Mouse embryonic fibroblast (MEF) cells were isolated from E13.5 LPA1&2 double knockout (DKO) embryos. MEFs were transduced with empty vector or LPA2-containing lentiviruses and selected with 1.5 μg/ml puromycin. Cells were maintained in Dulbecco's modified Eagle medium (DMEM) supplemented with 10% (V/V) fetal bovine serum (FBS), 2 mM L-glutamine, 100 U/mL penicillin, and 100 μg/mL streptomycin. Serum-free medium contained 0.1% (W/V) BSA in DMEM. The rat intestinal epithelial cell line 6 (IEC-6) was obtained from the American Type Culture Collection (Rockville, Md.) at passage 13; passages 16-21 were used in all experiments. IEC-6 cells were maintained in a humidified 37° C. incubator in an atmosphere of 90% air and 10% CO2. Growth medium consisted of DMEM supplemented with 5% heat inactivated FBS, 10 μg/mL insulin, and 50 μg/mL gentamycin. […]
HUVEC (1.3×10^5 cells at passages 5 to 7) were seeded into each well of a 12-well plate pre-coated with 0.2% gelatin (Sigma-Aldrich). […] Tumor cells that penetrated the monolayer were photographed using a NIKON TiU inverted microscope with phase-contrast and fluorescence illumination. […] A total of five non-overlapping fields was imaged per well, and the number of invaded MM1 cells (displaying a flattened morphology underneath the monolayer) was counted.

[3] = target: LPA2 (Homo sapiens, UniProt Q9HBW0); assay: Fura-2AM Ca2+ mobilization in LPA2 DKO MEF cells; format: cell-based; set-up: expressed in transfected cells; host or cells: mouse embryonic fibroblasts from LPA1/2 double-knockout mice, lentiviral transduction; settings: LPA2 Ca2+ mobilization in DKO MEF cells, mean fluorescence ratio
Method: (§1) Fluorescence was read every 3.42 seconds for a total of 70 seconds at Ex/Emλ of 340/510 nm and 380/510 nm. Data (relative fluorescence) was then recorded as a mean fluorescence ratio value of the triplicates for each concentration. Graph Pad Prism version 5.0a was then used to fit a non-linear regression curve in a variable slope model (A) to determine the EC50, Emax, and curve fit (R^2)(B).
Mouse embryonic fibroblast (MEF) cells used in this study isolated from LPA1/2 double knock out (LPA2-DKO) mice {Lin, 2007 #132}. These MEF express LPA4/5/6 receptors endogenously at lower levels but completely lack LPA1/2/3 receptor subtypes. The human LPA2 receptor was reintroduced into these MEF cells by lentiviral transduction, which are designated LPA2 DKO MEF {Lin, 2007 #132}. Empty vector-transduced MEF cells, designates as EV DKO MEF, were used as a control. Cells were cultured in a DMEM supplemented with 10% v/v fetal bovine serum (FBS), 2 mM L-glutamine, 100 U/ml penicillin, and 100 μg/mL streptomycin. During serum starvation, the growth medium was replaced with DMEM containing 0.1% (w/v) BSA.
as §1

LPA2, sequence (Q9HBW0 whole entry): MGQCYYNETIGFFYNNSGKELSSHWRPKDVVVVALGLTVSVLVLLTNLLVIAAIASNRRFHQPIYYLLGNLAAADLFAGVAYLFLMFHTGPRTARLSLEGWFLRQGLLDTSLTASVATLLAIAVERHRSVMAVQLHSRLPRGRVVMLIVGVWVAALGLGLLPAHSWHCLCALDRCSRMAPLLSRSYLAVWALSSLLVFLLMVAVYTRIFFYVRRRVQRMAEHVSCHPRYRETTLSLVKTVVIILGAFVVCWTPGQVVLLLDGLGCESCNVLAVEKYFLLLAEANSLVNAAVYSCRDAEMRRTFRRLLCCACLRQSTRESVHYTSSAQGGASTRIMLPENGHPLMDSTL
T1 sequence (Q9HBW0 whole entry): as above
T1 sequence (Q15599 whole entry partner): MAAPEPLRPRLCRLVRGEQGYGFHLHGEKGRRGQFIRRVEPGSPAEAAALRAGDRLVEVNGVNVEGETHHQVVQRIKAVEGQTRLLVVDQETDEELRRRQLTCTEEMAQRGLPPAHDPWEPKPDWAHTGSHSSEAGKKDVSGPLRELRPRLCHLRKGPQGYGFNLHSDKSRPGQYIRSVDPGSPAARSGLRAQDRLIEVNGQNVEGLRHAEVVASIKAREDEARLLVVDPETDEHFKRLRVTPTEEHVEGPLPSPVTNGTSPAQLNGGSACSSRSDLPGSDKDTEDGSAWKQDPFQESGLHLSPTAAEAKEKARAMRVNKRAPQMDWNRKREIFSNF
T1 sequence (Q15654 whole entry partner): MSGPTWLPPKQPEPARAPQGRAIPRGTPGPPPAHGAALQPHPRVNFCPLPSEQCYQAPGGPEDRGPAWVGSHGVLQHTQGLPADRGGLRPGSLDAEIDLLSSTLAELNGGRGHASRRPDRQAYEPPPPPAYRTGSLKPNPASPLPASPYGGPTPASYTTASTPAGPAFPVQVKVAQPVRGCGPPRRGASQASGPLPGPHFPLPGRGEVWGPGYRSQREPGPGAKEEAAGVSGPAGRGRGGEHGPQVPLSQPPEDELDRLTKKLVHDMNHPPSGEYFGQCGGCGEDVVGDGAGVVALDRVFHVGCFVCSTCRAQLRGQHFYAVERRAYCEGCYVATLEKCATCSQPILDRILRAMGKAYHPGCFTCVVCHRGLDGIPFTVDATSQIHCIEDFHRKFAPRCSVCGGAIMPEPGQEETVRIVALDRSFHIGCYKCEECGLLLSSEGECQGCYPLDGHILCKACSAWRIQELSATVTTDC

| SMILES | assembly of macromolecular complex LPA2-TRIP6-NHERF2 [1] | MM1 cell invasion of HUVEC monolayers [2] | Emax (MFR) [3] [MFR] |
| --- | --- | --- | --- |
| O=C(O)c1ccccc1SCCCN1C(=O)c2cccc3cccc(c23)C1=O [GRI977143] | elicited the assembly of the signaling complex | significant increase |  |
| CCCCCCCC/C=C\CCCCCCCC(=O)OC[C@@H](O)COP(=O)(O)O [LPA 18:1, Lysophosphatidic acid (18:1)] |  | significant increase | 1.2 |
